This is an account of results in patent US8853215B2, “Derivatives of N-acyl-N′-phenylpiperazine useful (inter alia) for the prophylaxis or treatment of diabetes” (Takeda Pharmaceutical Company Limited, priority 2009, dated 2014).

One assay concerns the target human RBP4 (Homo sapiens (Human), UniProt P02753). As to the kind of experiment: Binding assay by Retinol-RBP4-TTR ELISA. In outline: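 Biotinylated human TTR was captured on streptavidin plates, then His-tagged human RBP4 was added with compound premixed with 50 nM retinol (8 doses). Binding ran 2 h at room temperature in 50 mM Tris-HCl, 150 mM NaCl, 0.005% Tween 20, 1 mM DTT, 0.1% BSA, read by luminescence. Inhibition was scaled between retinol+DMSO and retinol-free controls, and IC50 fitted.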

The subject of another assay is Zucker fatty rats. As to the kind of experiment: Repeated drug administration test in Zucker fatty rats, plasma glucose and glycosylated hemoglobin. The class given is in vivo, Zucker fatty rats (fa/fa). The method, then: The effect of the compound of the present invention on plasma levels of glucose and glycosylated hemoglobin were evaluated using the animal model shown below.
Male Zucker fatty rats (fa/fa) and their lean littermates (Fa/?) were bred in Takeda Pharmaceutical Company Limited and maintained on normal diet (CE2, CLAE Japan, Inc.) and tap water. Animals were housed in a temperature-controlled room adjusted to a 12-hour light/12-hour dark cycle beginning at 7:00 and 19:00, respectively. All procedures were conducted according to the experimental animal care use committee of Takeda Pharmaceutical Company Limited.
From 8 weeks of age, Zucker fatty rats were maintained on a high fat diet (D06110702, 20 kCal % fat) (LSG Corporation, Japan). A compound was suspended in 0.5% (w/v) methylcellulose in water and given orally to rats at a volume of 5 mL/kg of body weight. After 4 days of pre-administration of 0.5% (w/v) methylcellulose, rats were divided based on body weight, glycosylated hemoglobin, and plasma glucose (PG) (n=6 each). Drug administration was started at 15 weeks of age and a drug (10 mg/kg) was administered once a day for 28 days.
Before and 28 days after the administration, blood samples were obtained from tail vein with sodium heparin as an anticoagulant, followed by plasma separation by centrifugation. Plasma glucose (PG) levels were measured enzymatically by an Autoanalyzer 7180 (Hitachi, Japan). Glycosylated hemoglobin levels were analyzed by a high performance liquid chromatography-based method using an automated analyzer HLC-723 or HLC-723 G7 (Tosoh, Japan). The changes in glycosylated hemoglobin were calculated by subtracting the initial value from final value.

For a further assay, the target named is RBP4 (Rattus norvegicus (Rat), UniProt P04916). As to the kind of experiment: Single administration test in Wistar fatty rats, plasma RBP4 by ELISA. The assay is classed as in vivo. As to conditions: male Wistar fatty rats, 10 mg/kg oral single dose, mean±SD; for RBP4 (% of initial/Control) 0 hr: 0 hr (just before the administration); for RBP4 (% of initial/Control) 4 hr: 4 hr after administration; for RBP4 (% of initial/Control) 7 hr: 7 hr after administration; for RBP4 (% of initial/Control) 24 hr: 24 hr after administration. How it is done: The action of the compounds of the present invention to lower plasma RBP4 level was evaluated using the animal model shown below.
Male Wistar fatty rats (fa/fa) were bred in Takeda Pharmaceutical Company Limited and maintained on normal diet (CE2, CLAE Japan, Inc.) and tap water. Animals were housed in a temperature-controlled room adjusted to a 12-hour light/12-hour dark cycle beginning at 7:00 and 19:00, respectively. All procedures were conducted according to the experimental animal care use committee of Takeda Pharmaceutical Company.
Male 13-43-week-old Wistar fatty rats were divided into groups randomly. Compounds were suspended in 0.5% (w/v) methylcellulose in water and given orally to Wistar fatty rats at a dose of 10 mg/10 mL/kg of body weight (3-5 rats per group). Blood samples were obtained from tail vein with sodium heparin as an anticoagulant at time 0 hr (just before the administration), 4 hr, 7 hr, and 24 hr after the administration, followed by plasma separation by centrifugation. Plasma RBP4 levels were measured by enzyme-linked immunosorbent assay described in the following section.
Plasma samples were analyzed in duplicate for RBP4 by an enzyme-linked immunosorbent assay. Mouse recombinant RBP4 (Takeda Pharmaceutical Company Limited) was used as standards, and the assay range was 0.313-20 ng/ml. Samples were diluted 10,000-fold with phosphate-buffered saline (PBS) (Sigma) containing 10% (w/v) BlockAce (Dainippon Sumitomo Pharma Co., Ltd). Rabbit anti-RBP4 polyclonal antibody (100 μL/well of 50 μg/mL, Hokudo Co, Ltd) was incubated in a 96-well plate (Nalge Nunc International K.K.) for overnight at 4° C. Subsequently, the plates were washed with PBS-T (Wako Pure Chemical Industries, Ltd.) and blocked with PBS containing 25% BlockAce for 1 hr at room temperature. After another washing with PBS-T, samples and standards were applied to the well, and the plates were incubated for 2 hr at room temperature. After a washing the wells, peroxidase-labeled (Dojindo Laboratories) anti-RBP4 (100 μL/well) was added to the wells, and then the plates were incubated for 1 hr at room temperature. After a final washing with PBS-T, substrate solution 3,3,5,5-tetramethylbenzidine (Sigma) was added to the wells, and the plates were placed in the dark for 5-20 min at room temperature. The reaction was stopped with 0.5 M sulphuric acid and the optical density was measured with a spectrophotometer at 450 nm. The changes in plasma RBP4 levels were expressed as % of initial/Control. All data are presented as mean±SD.
(ELISA stands for enzyme-linked immunosorbent assay.)

For the next assay, the system named is CD (SD) rats. Nature of the assay: Repeated drug administration test in CD (SD) rats, retinol in plasma and retina by HPLC. The assay is classed as in vivo. The method, then:
The effect of the compound on retinol level in retina was evaluated using the animal model shown below.
Male CD (SD) rats were purchased from Charles River (Japan) and maintained on normal diet (CR-LPF) (Oriental Yeast Co., Ltd.) and tap water. Animals were housed in a temperature-controlled room adjusted to a 12-hour light/12-hour dark cycle beginning at 7:00 and 19:00, respectively. All procedures were conducted according to the experimental animal care use committee of Takeda Pharmaceutical Company.
A compound was suspended in 0.5% (w/v) methylcellulose in water and given orally to rats at a volume of 10 mL/kg of body weight. Drug administration was started at 6 weeks of age and a drug (10 mg/kg) was administered once a day for 14 days. After repeated administration, blood samples were obtained from tail vein. Rats were dissected under anesthesia with ethyl ether and eyes were isolated.
Retina was isolated from the eye of the rats mentioned 5B with stereoscopic microscope and sonicated. Retinol was extracted into n-hexane and samples were taken to dryness under nitrogen gas. Samples residues were resuspended into 2-propanol and analyzed by HPLC. Chromatographic separations were achieved on TSKgel ODS120T Column (4.6×250 mm) (Tosoh) using Alliance series reverse phase HPLC (Waters). The mobile phase contained acetonitrile/methanol (3/1) at 4° C. and detected at UV 325 nm. Retinol in retina was corrected by total protein detected by BCA protein assay (Pierce).

Where [1] appears, read: Zucker fatty rats, 10 mg/kg, 28 days repeated administration.

As usually defined, the IC50 is the point on the concentration scale where inhibition reaches its midpoint. `CC(C)(C)c1ccccc1N1CCN(C(=O)NCC(=O)O)CC1` [Example 6, N-{[4-(2-tert-Butylphenyl)piperazin-1-yl]carbonyl}glycine]: the IC50 at human RBP4 (retinol 50 nM, His-tagged human RBP4, biotinylated human TTR, read-out: human RBP4 binding inhibitory activity (IC50 nM)) worked out at 540 nM. Besides, in the assay on Zucker fatty rats (Zucker fatty rats on high fat diet, 10 mg/kg oral once a day for 28 days, change = final minus initial value, mean±SD), the “Glycosylated hemoglobin (%)” value worked out at 0.95 ± 0.67%. For the same molecule, in the assay with Zucker fatty rats (Zucker fatty rats on high fat diet, 10 mg/kg oral once a day for 28 days, plasma glucose, mean±SD), the “PG (% of initial/Vehicle)” value is listed as 70.0 ± 19.7 % of initial/Vehicle. In the assay on Zucker fatty rats (setting [1]), the “effect on PG (in words)” value was “decreased PG significantly” and the “effect on glycosylated hemoglobin (in words)” value is given as “tended to decrease glycosylated hemoglobin (not significant)”. In addition, at RBP4, the “RBP4 (% of initial/Control) 0 hr” value is given as 100 ± 14.1 % of initial/Control, the “RBP4 (% of initial/Control) 4 hr” value is reported as 36.2 ± 5.0 % of initial/Control, the “RBP4 (% of initial/Control) 7 hr” value is listed as 27.4 ± 5.9 % of initial/Control and the “RBP4 (% of initial/Control) 24 hr” value was 104.5 ± 4.4 % of initial/Control.

As for `O=C(O)CCc1nc(-c2cc(C(F)(F)F)cc(C(F)(F)F)c2)co1` [Reference Example 26, 3-{4-[3,5-bis(trifluoromethyl)phenyl]-1,3-oxazol-2-yl}propanoic acid, reference compound], the inhibition at 10 µM on human RBP4 (at 10 μM compound, read-out: human RBP4 binding inhibitory activity(% at 10 μM)) turned out to be 100%. Moreover, at RBP4, the “RBP4 (% of initial/Control) 0 hr” value was 100 ± 22.9 % of initial/Control, the “RBP4 (% of initial/Control) 4 hr” value is given as 34.7 ± 13.7 % of initial/Control, the “RBP4 (% of initial/Control) 7 hr” value is recorded as 24.9 ± 10.6 % of initial/Control and the “RBP4 (% of initial/Control) 24 hr” value is listed as 9.2 ± 6.1 % of initial/Control. In the assay on CD (SD) rats (CD (SD) rats, 10 mg/kg, 14 days repeated administration), the “effect on retinol in plasma and retina (in words)” value was “decreased retinol in plasma and retina significantly”. Further, the “Retinol in retina” value in the assay on CD (SD) rats (male CD (SD) rats, 10 mg/kg oral once a day for 14 days, corrected by total protein, mean±SD) came out at 0.06 ± 0.01 µg/mg. Besides, the “Retinol in plasma (μg/mL)” value in the assay with CD (SD) rats (male CD (SD) rats, 10 mg/kg oral once a day for 14 days, mean±SD) is “Not detected”.
